According to US10975116B2, “Methods of treating and preventing gastrointestinal motility disorders using aminosterols” (Enterin, Inc., priority 2013, dated 2021):

Experiments:
[1] = tested on: NHE-3 transporter; settings: electrostatic mechanism, epithelial cell; cited from earlier work
[2] = tested on: endometrial cancer; assay: Oral squalamine in endometrial cancer, single subject; assay type: in vivo, human
Description: A person presented with abdominal discomfort and the presence of a palpable abdominal mass. […] Surgical removal of the uterus and ovaries was followed by chemotherapy. Subsequently, a large tumor adherent to the distal colon was discovered, along with additional nodes. A colonic resection was performed along with local radiation to the peritoneum.
The individual decided to stop all chemotherapy due to progression of the cancer and the adverse reactions previously experienced. The subject began oral squalamine in capsule form in August 2012. […] The dose of squalamine was raised to 100 mg/day in two divided doses. In October 2013, the tumor adjacent to the ureter was irradiated. […] The individual remains on squalamine 100 mg/day. They are in otherwise excellent health.

[3] = tested on: gliobastoma; assay: Oral squalamine in brain tumor, single subject; assay type: in vivo, human
Description: A person presented with headache and memory loss. […] The tumor was partially resected surgically, followed by local radiation. The subject was placed on a clinical protocol evaluating everolimus and temozolimide.
In mid October 2013, the subject began squalamine capsules with a 100 mg single dose. […] Squalamine treatment continues.

[4] = tested on: lymphoma; assay: Oral squalamine in lymphoma, single subject; assay type: in vivo, human
Description: A person with a 2 year history of progressive dementia and weakness presented with a massive cervical, axillary, and inguinal lymphadenopathy, along with malaise, somnolence and pain. […] The skin of their feet was a nonblanching bright pink hue up to the ankle with a scattered brownish purpuric rash. The individual was provided end of life care.
At the end of December 2013, the individual was begun on a daily dose of one 50 mg capsule of squalamine. […] Rash cleared within 3 days. On day 4 after squalamine initiation, a short course of dexamethsone was begun to treat the hypercalcemia, and stimulate appetite. 20 mg (4 days), 16 mg (2 days), 8 mg, 4 mg (2 days), then 2 mg daily. […] Mid-January 2014 weakness on the right, involving arm and leg was noted; a diagnosis of a mild stroke was made. […] A flat left submandibular node was felt of normal size and consistency. […] Squalamine treatment continues.

[5] = tested on: pancreatic adenocarcinoma; assay: Oral squalamine in Stage 4b pancreatic cancer, single subject; assay type: in vivo, human
Description: A person presented with abdominal discomfort, weight loss, and malaise. After considerable medical consultations a diagnosis of pancreatic adenocarcinoma was made. The subject was treated with chemotherapy and experienced a severe adverse reaction, which included ascites and pleural effusion. […] In August 2013, the subject was evaluated for a clinical trial at TGEN in Arizona, but not admitted due to the extensive cancer evident in the pancreas, liver, and nodes.
In late August 2013, the subject was begun on 50 mg/day, then increased to 100 mg/day after a week. The subject began once monthly cycles of cisplatin and 5-FU. […] The overall level of performance of the individual continues to improve, but the ascites and pleural effusions persist. […] All concurrent chemotherapy has stopped. Squalamine treatment continues.

[6] = tested on: gastrointestinal tract; assay: Aminosterol Induced GI Response after oral capsule in a human; assay type: in vivo
Description: Gelatin capsules were prepared for oral administration. Capsules were coated in shellac to prevent their release within the stomach. Furthermore, because squalamine and related aminosterols have antibiotic activity, enteric coating prevents the drug from altering the microbial populations of the stomach. […] Squalamine dilactate powder, 99% pure, or 1436 hydrochloride, 99% pure, was added manually into either Size 0 (for the 200 mg dose) or Size 1 (for the 100 mg dose) gelatin capsules. No excipient was added. The capsules were coated twice in 5% shellac (80% acetone/20% ethanol) and dried before use.
200 mg of squalamine (lactate salt, excipient free) in a coated gelatin capsule was administered orally to a human in the morning on an empty stomach, with water. Squalamine was synthesized as described in Zasloff et al 2011. Within 2 hours nausea was experienced, lasting about 30 minutes. At 2.5 hours, increased peristalsis (“rumbling gut”) was experienced, lasting several minutes. At about 3 hours, a clear watery discharge of about 200 ml was passed rectally. A second episode occurred at 3.2 hours. Following this episode, bowel sounds quieted. No nausea or discomfort was subsequently experienced. Appetite was near normal. Despite normal feeding, feces were not passed for 2.5 days over which time no discomfort was experienced. The first feces passed after this quiescent period was soft and relatively small considering the intake of food and the time interval. Usual bowel functions resumed by about 4 days after squalamine administration.
200 mg of 1436 (HCl salt, excipients free) in a gelatin capsule was administered orally to a human in the morning on an empty stomach, with water. […] At 2 hours, about 100 ml of clear watery diarrhea, recurring at 2.75 hours, 3 hours, 3.25 hours, and 4 hours, with progressively lesser volumes of liquid discharged. First bowel movement was passed at 3.5 days, of normal consistency. The subject experienced no abdominal discomfort, bloating, etc over this period. Usual bowel functions resumed by about 4.5 days after administration of Aminosterol 1436. […]
100 mg of squalamine was orally administered in a capsule as in the first example. […] A period of “bowel quiet” was induced, however, that lasted 2 days, after which normally formed feces were passed.

[7] = tested on: N-terminally acetylated alpha-synuclein bound to DOPE/DOPS/DOPC vesicles; assay: Displacement of alpha-synuclein from negatively charged vesicles (circular dichroism); assay type: binding
Description: Alpha-synuclein was mixed with a preparation of vesicles consisting of DOPE (50%), DOPS (30%), DOPC (20%). The concentration of lipid was 2.4 mM; the concentration of N-terminally acetylated alpha-synuclein was 10 μM. The interaction was followed by circular dichoroism. The concentration of squalamine was increased in 40 μM increments. […] At a ratio of lipid to squalamine of 15:1, full displacement of alpha-synuclein was observed. Addition of squalamine to a solution of alpha-synuclein alone had no effect on the circular dichroism spectrum.

[8] = single 100 mg oral capsule, empty stomach
[9] = single 200 mg oral capsule, morning, empty stomach, one human

Substance: squalamine
- effect on NHE-3 transporter [1]: inhibits the NHE-3 transporter
- PET/CT, metastases ([2]; 100 mg/day in two divided doses, February 2013 as printed): no additional metasteses were observed
- tumor status ([2]; July 2013, before dose raised to 100 mg/day): a small tumor appeared adjacent to the right ureter, and a second attached to the left descending colon
- PET/CT imaging ([2]; oral capsules from August 2012, by March 2013): no evidence of malignancy was visible
- decrease of tumor mass by MRI ([3]; 100 mg from mid October 2013, with everolimus and temozolimide protocol, early December 2013): about 20%
- residual tumor volume relative to volume after the surgery/radiation ([3]; 100 mg, beginning of February 2014): 60%
- physical examination of nodes ([4]; 50 mg daily from end of December 2013, end of February 2014): no palpable cervical nodes
- lymph node size ([4]; 50 mg daily, by 1 week, dexamethsone from day 4): marked reduction in the size of the nodes
- clinical chemistry, polyclonal immunoglobulins ([4]; 50 mg daily, repeat study): complete resolution of the polyclonal gammopathy
- rash cleared ([4]; one 50 mg capsule daily): ≤ 3 days
- bowel function ([4]; one 50 mg capsule daily, previously constipated): bowels began to move
- PET/CT scan ([5]; 100 mg/day with monthly cisplatin and 5-FU, February 2014): complete loss of all PET active masses
- cytology of the peritoneal fluid ([5]; 100 mg/day, ongoing): remains negative for abnormal cells
- PET/CT scan ([5]; 50 then 100 mg/day from late August 2013, with monthly cisplatin and 5-FU, early December 2013): dramatic reduction in PET intensity of all previously active cancer
- gastrointestinal response ([6]; 200 mg oral capsule in the evening following a large meal, overnight and following morning): No gastrointestinal response
- duration of the Aminosterol-Induced GI Response ([6]; following a single 200 mg oral dose): about 4 days
- period of bowel quiet after the watery discharge (Phase III) ([6]; following the larger squalamine dose (for example 200 mg)): 2 to 3 days
- duration of bowel quiet [6, 8]: 2 days
- nausea and watery diarrhea [6, 8]: Neither nausea, nor watery diarrhea was experienced
- duration of nausea [6, 9]: about 30 minutes
- first clear watery rectal discharge / diarrhea, time after dosing [6, 9]: about 3 hours
- further episodes of watery discharge, time after dosing [6, 9]: 3.2 h
- increased peristalsis, time after dosing [6, 9]: 2.5 h
- nausea, time of onset after dosing [6, 9]: ≤ 2 h
- usual bowel functions resumed, time after administration [6, 9]: about 4 days
- volume of first clear watery discharge [6, 9]: about 200 ml
- time without feces / to first bowel movement after dosing ([6]; single 200 mg oral capsule, morning, empty stomach, normal behavior about 1 passage every 24 hours): 2.5 days
- estimated reduction of small intestinal motility ([6]; single 200 mg oral dose, versus normal about 1 passage every 24 hours): 2.5 fold
- amount of alpha-synuclein membrane bound with increasing squalamine ([7]; lipid 2.4 mM, alpha-synuclein 10 μM, squalamine in 40 μM increments): linear decrease
- effect on circular dichroism spectrum of alpha-synuclein alone ([7]; no vesicles): no effect
